ChEMBL document CHEMBL6103611, “Structure and Dynamics of Macrophage Infectivity Potentiator Proteins from Pathogenic Bacteria and Protozoans Bound to Fluorinated Pipecolic Acid Inhibitors” (J Med Chem, 2025)
Calls of active or inactive are those of the source. The rule behind the calls is not given here.

Assays:
[1] = molecular target: T1, Peptidyl-prolyl cis-trans isomerase (Burkholderia pseudomallei (strain K96243)) (UniProt Q63J95)
T1 sequence (whole entry): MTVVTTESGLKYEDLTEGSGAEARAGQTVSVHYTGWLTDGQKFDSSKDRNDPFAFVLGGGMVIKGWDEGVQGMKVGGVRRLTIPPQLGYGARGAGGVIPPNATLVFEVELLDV

[2] = molecular target: T2, Macrophage infectivity potentiator (Trypanosoma cruzi) (UniProt Q09734)
T2 sequence (whole entry): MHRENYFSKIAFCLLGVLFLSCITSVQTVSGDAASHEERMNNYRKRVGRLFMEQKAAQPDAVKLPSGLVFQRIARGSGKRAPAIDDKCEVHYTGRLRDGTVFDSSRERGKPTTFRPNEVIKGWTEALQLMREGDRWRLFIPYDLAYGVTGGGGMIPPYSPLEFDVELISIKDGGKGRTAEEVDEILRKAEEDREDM

[3] = molecular target: Outer membrane protein MIP (Legionella pneumophila) (UniProt Q70YI1)
[4] = molecular target: Outer membrane protein MIP (Legionella pneumophila) (UniProt Q70YI1); remark: listed apart in the source
[5] = molecular target: T2, Macrophage infectivity potentiator (Trypanosoma cruzi); remark: listed apart in the source
[6] = molecular target: Outer membrane protein MIP (Legionella pneumophila) (UniProt Q70YI1); remark: listed apart in the source
[7] = molecular target: T1, Peptidyl-prolyl cis-trans isomerase (Burkholderia pseudomallei (strain K96243)); remark: listed apart in the source
[8] = molecular target: Outer membrane protein MIP (Legionella pneumophila) (UniProt Q70YI1); remark: listed apart in the source
[9] = molecular target: Outer membrane protein MIP (Legionella pneumophila) (UniProt Q70YI1); remark: listed apart in the source
[10] = molecular target: T2, Macrophage infectivity potentiator (Trypanosoma cruzi); remark: listed apart in the source
[11] = molecular target: Outer membrane protein MIP (Legionella pneumophila) (UniProt Q70YI1); remark: listed apart in the source
[12] = molecular target: Outer membrane protein MIP (Legionella pneumophila) (UniProt Q70YI1); remark: listed apart in the source
[13] = molecular target: Outer membrane protein MIP (Legionella pneumophila) (UniProt Q70YI1); remark: listed apart in the source
[14] = molecular target: T1, Peptidyl-prolyl cis-trans isomerase (Burkholderia pseudomallei (strain K96243)); remark: listed apart in the source

SMILES | Time [1] | Time [2] | Time [3] | Time [4] | Activity [5] | Activity [6] | Activity [7] | Activity [8] | Activity [9] | Activity [10] | Activity [11] | Activity [12] | Activity [13] | Activity [14]
O=C(NCc1cccnc1)[C@H](Cc1ccc(F)cc1)NC(=O)[C@@H]1CCCCN1S(=O)(=O)Cc1ccc(F)cc1 | 7.8 nanoseconds | 14.5 nanoseconds | 25.4 nanoseconds | 9.7 nanoseconds | Active | Active | Active | Active | Active | Active | Active | Active | Active | –
CC(C)C[C@H](NC(=O)[C@@H]1CCCCN1S(=O)(=O)Cc1ccc(F)cc1)C(=O)NCc1cccnc1 | 7.6 nanoseconds | 13.8 nanoseconds | 27.9 nanoseconds | 8.8 nanoseconds | – | Active | Active | Active | Active | Active | Active | Active | Active | Active
